# Laboratory results reported in patent publication US6995269B2, “Guanidinobenzamides” (Chiron Corporation, priority 2000, dated 2006).
# Tests used:
# Format in all cases: in vivo
# ob/ob mice [1] = assay: Food intake in ob/ob mice, 4 week IP treatment; conditions: 3 mg/kg IP twice daily for 4 weeks, vs vehicle
# Experimental: (§1) In vivo studies were conducted to observe the effect of MCR-4 agonists on energy intake, body weight, hyperinsulinemia, and glucose levels. All studies were conducted with male-9–10 week old ob/ob mice which display early onset of obesity, insulin resistance and diabetes due to leptin deficiency. Mice were acclimated in the facility for 1 week before studies and are caged individually. Vehicle-treated (control) and drug treated mice studies were always run in parallel. In multi-day studies, mice (8–15 per group) were monitored for baseline body weight, fasting levels of glucose, insulin, blood lipids and energy expenditure and then injected twice daily (9 a.m. and 5 p.m.) with 3 mg/kg of the MC4-R agonist 4-[(N-cyclohexyl-3,5-dimethyl-piperazine-1-carboximidoyl)-amino]-N-[2-(2,4-dichlorophenyl)-ethyl]-benzamide for 4 weeks. Body weight as well as food and water intake were monitored daily. […] Energy expenditure (resting metabolic rate, i.e., O2 consumption and CO2 production) were monitored in air tight chambers at the end of the study on fed animals. O2 consumption and CO2 production were measured using Oxymax systems (Columbus Instruments). […] Blood glucose and oral glucose tolerance were measured using a glucose monitor (Onetouch sold by Lifescan). Free fatty acids were measured using an non-esterified free fatty acids enzymatic assay (Waco Chemicals). […]
# ob/ob mice [2] = assay: Body weight in ob/ob mice, 4 week IP treatment; conditions: 3 mg/kg IP twice daily for 4 weeks
# Experimental: as §1
# ob/ob mice [3] = assay: Fasting blood glucose in ob/ob mice, 4 week IP treatment; conditions: ob/ob mice fasted overnight, 3 mg/kg IP twice daily for 4 weeks, vs vehicle
# Experimental: as §1
# ob/ob mice [4] = assay: Oral glucose tolerance test (OGTT) in ob/ob mice at end of study; conditions: overnight fasted ob/ob mice at end of 4 week study, oral glucose load, vs vehicle
# Experimental: as §1
# ob/ob mice [5] = assay: Free fatty acid levels in ob/ob mice; conditions: ob/ob mice fasted overnight, drug treated IP vs vehicle
# Experimental: as §1
# ob/ob mice [6] = assay: Serum insulin levels after single IP dosing in ob/ob mice; conditions: overnight fasted ob/ob mice
# Experimental: as §1
smiles,measurement,setting,value
"CC1CN(C(=NC2CCCCC2)Nc2ccc(C(=O)NCCc3ccc(Cl)cc3Cl)cc2)CC(C)N1 (stereo not shown) [4-[(N-cyclohexyl-3,5-dimethyl-piperazine-1-carboximidoyl)-amino]-N-[2-(2,4-dichlorophenyl)-ethyl]-benzamide]",food intake,ob/ob mice [1],significant reduction in food intake
same,body weight less than the vehicle treated mice at the end of the study,ob/ob mice [2],19%
same,decrease in fasting blood glucose levels,ob/ob mice [3],47%
same,decrease of the area under the curve of glucose in OGTT,ob/ob mice [4],45%
same,decrease in free fatty acid (FFA) levels,ob/ob mice [5],50%
same,decrease of serum insulin levels relative to vehicle,ob/ob mice [6]; one hour after single IP dosing of 1 mg/kg,27%
same,decrease of serum insulin levels relative to vehicle,ob/ob mice [6]; one hour after single IP dosing of 3 mg/kg,55%
